Results: patent US20160237044A1, “SUBSTITUTED PHENYLALANINE DERIVATIVES” (BAYER PHARMA AKTIENGESELLSCHAFT, priority 2013, published 2016)
Where a name gives a salt, the structure may show the parent alone.

Key:
human factor XIa = molecular target: T1, human factor XIa (Homo sapiens, UniProt P03951); assay: Measurement of FXIa inhibition (fluorogenic peptide substrate Boc-Glu(OBzl)-Ala-Arg-AMC); assay type: biochemical; conditions: factor XIa from Kordia, 15 min preincubation, 30 min at 22° C., fluorescence; read-out: IC50
T1 construct: purchased Kordia
Experimental: a.1) Measurement of FXIa Inhibition
The factor XIa inhibition of the substances according to the invention is determined using a biochemical test system which utilizes the reaction of a peptidic factor XIa substrate to determine the enzymatic activity of human factor XIa. Here, factor XIa cleaves from the peptic factor XIa substrate the C-terminal aminomethylcoumarin (AMC), the fluorescence of which is measured. The determinations are carried out in microtitre plates.
(§1) In each case 1 μl of the diluted substance solutions is placed into the wells of white microtitre plates from Greiner (384 wells). […] After 15 min of incubation, the enzyme reaction is started by addition of 20 μl of the factor XIa substrate Boc-Glu(OBzl)-Ala-Arg-AMC dissolved in assay buffer (10 μM in assay buffer) from Bachem, the mixture is incubated at room temperature (22° C.) for 30 min and fluorescence is then measured (excitation: 360 nm, emission: 460 nm). The measured emissions of the test batches with test substance are compared to those of control batches without test substance (only dimethyl sulphoxide instead of test substance in dimethyl sulphoxide), and IC50 values are calculated from the concentration/activity relationships.

plasma = assay: Determination of anticoagulatory activity: activated partial thromboplastin time (aPTT) in plasma; assay type: biochemical, human; conditions: concentration of test substance which brings about a 1.5-fold extension of the aPTT, C.K. Prest kit, 37° C.
Experimental: a.4) Determination of Anticoagulatory Activity
The anticoagulatory activity of the test substances is determined in vitro in human and animal plasma (for example mouse, rat, rabbit, pig and dog plasma). To this end, blood is drawn off in a mixing ratio of sodium citrate/blood of 1:9 using a 0.11 molar sodium citrate solution as receiver. Immediately after the blood has been drawn off, it is mixed thoroughly and centrifuged at about 4000 g for 15 minutes. The supernatant is pipetted off.
The activated partial thromboplastin time (aPTT) is determined in the presence of varying concentrations of test substance or the corresponding solvent using a commercial test kit (C.K. Prest from Diagnostica Stago). The test compounds are incubated with the plasma and the PTT reagent (cephalin, kaolin) at 37° C. for 3 minutes. Coagulation is then started by addition of a 25 mM aqueous calcium chloride solution, and the time when coagulation occurs is determined. The concentration of test substance which brings about a 1.5-fold extension of the aPTT is determined.

human plasmin = molecular target: T2, human plasmin (Homo sapiens, UniProt P00747); assay: Measurement of plasmin inhibition (fluorogenic peptide substrate MeOSuc-Ala-Phe-Lys-AMC); assay type: biochemical; conditions: plasmin from Kordia, 15 min preincubation, 30 min at 22° C., fluorescence
T2 construct: purchased Kordia
Experimental: a.6) Measurement of Plasmin Inhibition
The plasmin inhibition of the inventive substances is determined using a biochemical test system which utilizes the reaction of a peptidic plasmin substrate to determine the enzymatic activity of human plasmin. Here, plasmin cleaves from the peptic plasmin substrate the C-terminal aminomethylcoumarin (AMC), the fluorescence of which is measured. The determinations are carried out in microtitre plates.
as §1, with “Test substances are dissolved in dimethyl sulphoxide and serially diluted in dimethyl sulphoxide (3000 μM to 0.0078 μM; resulting final concentrations in the test: 50 μM to 0.00013 μM). In” for “In”, “plasmin” for “factor XIa”, “MeOSuc-Ala-Phe-Lys-AMC” for “Boc-Glu(OBzl)-Ala-Arg-AMC”, “(150” for “(10”

T1 sequence (P03951 388-625 limits assumed): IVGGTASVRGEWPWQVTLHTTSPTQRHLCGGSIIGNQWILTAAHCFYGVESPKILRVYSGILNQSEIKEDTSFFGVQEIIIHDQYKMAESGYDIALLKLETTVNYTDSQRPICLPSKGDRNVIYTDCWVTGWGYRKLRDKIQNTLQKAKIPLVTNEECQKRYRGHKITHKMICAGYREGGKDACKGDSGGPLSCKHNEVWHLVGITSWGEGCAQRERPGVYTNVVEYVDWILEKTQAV
T1 sequence (P03951 19-387 partner limits assumed): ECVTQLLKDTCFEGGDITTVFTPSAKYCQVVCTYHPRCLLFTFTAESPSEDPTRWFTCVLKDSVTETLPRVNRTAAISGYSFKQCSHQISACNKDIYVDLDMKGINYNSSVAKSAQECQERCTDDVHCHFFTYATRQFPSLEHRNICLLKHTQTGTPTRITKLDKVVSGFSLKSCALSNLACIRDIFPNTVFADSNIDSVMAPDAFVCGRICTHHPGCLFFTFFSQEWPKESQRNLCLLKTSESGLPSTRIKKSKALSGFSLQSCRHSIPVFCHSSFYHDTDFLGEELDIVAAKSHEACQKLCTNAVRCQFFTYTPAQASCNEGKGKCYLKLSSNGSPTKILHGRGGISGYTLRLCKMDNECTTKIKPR
T2 sequence (P00747 581-810 limits assumed): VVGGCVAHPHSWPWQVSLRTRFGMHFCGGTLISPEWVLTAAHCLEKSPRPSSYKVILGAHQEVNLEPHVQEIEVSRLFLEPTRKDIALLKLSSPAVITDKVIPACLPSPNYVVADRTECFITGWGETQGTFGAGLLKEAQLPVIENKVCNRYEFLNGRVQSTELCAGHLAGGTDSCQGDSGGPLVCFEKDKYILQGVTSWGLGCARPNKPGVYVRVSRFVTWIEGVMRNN
T2 sequence (P00747 97-580 partner limits assumed): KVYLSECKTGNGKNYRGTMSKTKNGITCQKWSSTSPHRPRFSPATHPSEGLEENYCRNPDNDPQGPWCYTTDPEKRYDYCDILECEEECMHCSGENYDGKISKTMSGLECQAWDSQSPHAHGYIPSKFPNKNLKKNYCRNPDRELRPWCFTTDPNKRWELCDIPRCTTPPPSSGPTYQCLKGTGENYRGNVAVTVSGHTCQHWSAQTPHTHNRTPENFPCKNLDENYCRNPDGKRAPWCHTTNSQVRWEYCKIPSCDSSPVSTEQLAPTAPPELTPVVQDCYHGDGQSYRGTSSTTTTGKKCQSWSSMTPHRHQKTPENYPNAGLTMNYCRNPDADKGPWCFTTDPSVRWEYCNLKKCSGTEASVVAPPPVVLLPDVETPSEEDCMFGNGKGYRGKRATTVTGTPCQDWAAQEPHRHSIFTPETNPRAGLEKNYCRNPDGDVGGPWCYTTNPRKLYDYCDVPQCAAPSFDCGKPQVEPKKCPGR

| SMILES | IC50 (human factor XIa) | Concentration for 1.5-fold aPTT extension (plasma) | IC50 (human plasmin) |
| --- | --- | --- | --- |
| CN(C)C1CCC(NS(=O)(=O)c2ccc(-c3ccc(C[C@H](NC(=O)[C@H]4CC[C@H](CN)CC4)C(=O)Nc4ccc5[nH]c(=O)[nH]c5c4)cc3)c(C(F)(F)F)c2)CC1 (stereo partly drawn) [Example 28, trans-4-(Aminomethyl)-N-{(2S)-3-[4′-{[4-(dimethylamino)cyclohexyl]sulphamoyl}-2′-(trifluoromethyl)biphenyl-4-yl]-1-oxo-1-[(2-oxo-2,3-dihydro-1H-benzimidazol-5-yl)amino]propan-2-yl}cyclohexanecarboxamide hydrochloride] | 5.2 nM | 0.06 µmol/L | – |
| Cc1cc(S(=O)(=O)NC2CCNC(C)C2)ccc1-c1ccc(C[C@H](NC(=O)[C@H]2CC[C@H](CN)CC2)C(=O)Nc2ccc(-c3nn[nH]n3)cc2)cc1 (stereo partly drawn) [Example 10, trans-4-(Aminomethyl)-N-[(2S)-3-(2′-methyl-4′-{[(2-methylpiperidin-4-yl]sulphamoyl}biphenyl-4-yl)-1-oxo-1-{[4-(2H-tetrazol-5-yl)phenyl]amino}propan-2-yl]cyclohexanecarboxamide hydrochloride] | 1.1 nM | 0.1 µmol/L | – |
| Cc1cc(S(=O)(=O)N[C@@H]2CCNC2)ccc1-c1ccc(C[C@H](NC(=O)[C@H]2CC[C@H](CN)CC2)C(=O)Nc2ccc(-c3nn[nH]n3)cc2)cc1 [Example 16, trans-4-(Aminomethyl)-N-[(2S)-3-{2′-methyl-4′-[(3R)-pyrrolidin-3-ylsulphamoyl]biphenyl-4-yl}-1-oxo-1-{[4-(2H-tetrazol-5-yl)phenyl]amino}propan-2-yl]cyclohexanecarboxamide hydrochloride] | 1.3 nM | 0.11 µmol/L | – |
| Cc1cc(S(=O)(=O)N(C)C)ccc1-c1ccc(C[C@H](NC(=O)[C@H]2CC[C@H](CN)CC2)C(=O)Nc2ccc3c(=O)[nH][nH]c3c2)cc1 [Example 13, trans-4-(Aminomethyl)-N-{(2S)-3-[4′-(dimethylsulphamoyl)-2′-methylbiphenyl-4-yl]-1-oxo-1-[(3-oxo-2,3-dihydro-1H-indazol-6-yl)amino]propan-2-yl}cyclohexanecarboxamide hydrochloride] | 3.1 nM | 0.07 µmol/L | – |
| Cc1cc(S(=O)(=O)NC2CC2)ccc1-c1ccc(C[C@H](NC(=O)[C@H]2CC[C@H](CN)CC2)C(=O)Nc2ccc3c(=O)[nH][nH]c3c2)cc1 [Example 12, trans-4-(Aminomethyl)-N-{(2S)-3-[4′-(cyclopropylsulphamoyl)-2′-methylbiphenyl-4-yl]-1-oxo-1-[(3-oxo-2,3-dihydro-1H-indazol-6-yl)amino]propan-2-yl}cyclohexanecarboxamide hydrochloride] | 2.7 nM | 0.04 µmol/L | 30 nM |
| CNS(=O)(=O)c1ccc(-c2ccc(C[C@H](NC(=O)[C@H]3CC[C@H](CN)CC3)C(=O)Nc3ccc4c(=O)[nH][nH]c4c3)cc2)c(C)c1 [Example 18, trans-4-(Aminomethyl)-N-{(2S)-3-[2′-methyl-4′-(methylsulphamoyl)biphenyl-4-yl]-1-oxo-1-[(3-oxo-2,3-dihydro-1H-indazol-6-yl)amino]propan-2-yl}cyclohexanecarboxamide hydrochloride] | 5.4 nM | 0.13 µmol/L | – |
| CS(=O)(=O)c1ccc(-c2ccc(C[C@H](NC(=O)[C@H]3CC[C@H](CN)CC3)C(=O)Nc3ccc(-c4nn[nH]n4)cc3)cc2)c(C(F)(F)F)c1 [Example 21, trans-4-(Aminomethyl)-N-[(2S)-3-[4′-(methylsulphonyl)-2′-(trifluoromethyl)biphenyl-4-yl]-1-oxo-1-{[4-(2H-tetrazol-5-yl)phenyl]amino}propan-2-yl]cyclohexanecarboxamide hydrochloride] | 0.9 nM | 0.23 µmol/L | – |
| COc1ccc(-c2ccc(C[C@H](NC(=O)[C@H]3CC[C@H](CN)CC3)C(=O)Nc3ccc(-c4nn[nH]n4)cc3)cc2)c(C(F)(F)F)c1 [Example 27, trans-4-(Aminomethyl)-N-[(2S)-3-[4′-methoxy-2′-(trifluoromethyl)biphenyl-4-yl]-1-oxo-1-{[4-(2H-tetrazol-5-yl)phenyl]amino}propan-2-yl]cyclohexanecarboxamide hydrochloride] | 4.5 nM | 0.21 µmol/L | – |
| NC[C@H]1CC[C@H](C(=O)N[C@@H](Cc2ccc(-c3ccc(N4CCOCC4=O)cc3)cc2)C(=O)Nc2ccc(-c3nn[nH]n3)cc2)CC1 [Example 25, trans-4-(Aminomethyl)-N-[(2S)-1-oxo-3-[4′-(3-oxomorpholin-4-yl)biphenyl-4-yl]-1-{[4-(2H-tetrazol-5-yl)phenyl]amino}propan-2-yl]cyclohexanecarboxamide hydrochloride] | 2.5 nM | 0.36 µmol/L | – |
| Cc1cc(S(=O)(=O)N(C)C)ccc1-c1ccc(C[C@H](NC(=O)[C@H]2CC[C@H](CN)CC2)C(=O)Nc2ccc(-c3nn[nH]n3)c(F)c2)cc1 [Example 24, trans-4-(Aminomethyl)-N-[(2S)-3-[4′-(dimethylsulphamoyl)-2′-methylbiphenyl-4-yl]-1-{[3-fluoro-4-(2H-tetrazol-5-yl)phenyl]amino}-1-oxopropan-2-yl]cyclohexanecarboxamide hydrochloride] | 0.4 nM | 0.27 µmol/L | – |
| Cc1cc(S(=O)(=O)NC2CCNCC2)ccc1-c1ccc(C[C@H](NC(=O)[C@H]2CC[C@H](CN)CC2)C(=O)Nc2ccc(-c3nnn[nH]3)cc2)cc1 [Example 1, trans-4-(Aminomethyl)-N-[(2S)-3-[2′-methyl-4′-(piperidin-4-ylsulphamoyl)biphenyl-4-yl]-1-oxo-1-{[4-(1H-tetrazol-5-yl)phenyl]amino}propan-2-yl]cyclohexanecarboxamide hydrochloride] | 1.1 nM | 0.1 µmol/L | – |
| Cc1cc(S(N)(=O)=O)ccc1-c1ccc(C[C@H](NC(=O)[C@H]2CC[C@H](CN)CC2)C(=O)Nc2ccc(-c3nnc(Cl)[nH]3)cc2)cc1 [Example 20, trans-4-(Aminomethyl)-N-[(2S)-1-{[4-(3-chloro-4H-1,2,4-triazol-5-yl)phenyl]amino}-3-(2′-methyl-4′-sulphamoylbiphenyl-4-yl)-1-oxopropan-2-yl]cyclohexanecarboxamide hydrochloride] | 1.8 nM | 0.18 µmol/L | – |
| Cc1cc(S(=O)(=O)N2CCCC2)ccc1-c1ccc(C[C@H](NC(=O)[C@H]2CC[C@H](CN)CC2)C(=O)Nc2ccc3c(=O)[nH][nH]c3c2)cc1 [Example 15, trans-4-(Aminomethyl)-N-{(2S)-3-[2′-methyl-4′-(pyrrolidin-1-ylsulphonyl)biphenyl-4-yl]-1-oxo-1-[(3-oxo-2,3-dihydro-1H-indazol-6-yl)amino]propan-2-yl}cyclohexanecarboxamide hydrochloride] | 2.8 nM | 0.09 µmol/L | 23 nM |
